Source: US12583888B2, “Bi-specific extracellular matrix binding peptides and methods of use thereof” (University of Tartu, priority 2019, dated 2026)
Values joined by “and” are separate entries in the source; they are usually repeats but may differ in a detail not shown here. Equal values may be shown once. No end group written: not given here.

Key:
[1] = system: WT-GBM tumor; conditions: i.v. equimolar mix, 2 h circulation
Source text: (§1) In vivo play-off was used to evaluate systemic homing of peptide phage to xenograft tumor models. The in vitro selected candidate TNC-C binding peptides, phages displaying published tumor homing peptides, and control peptides were amplified and purified by precipitation with PEG-8000 (Sigma-Aldrich, St. Louis, MO, USA), followed by CsCl2 gradient ultracentrifugation and dialysis. The amplified phage peptides were pooled in equimolar quantities, and injected intravenously (final 1×10^10 pfu in 200 μl PBS) in tumor-bearing mice for two hour circulation, after which mice were anesthetized with 2.5% avertin and intracardially perfused with DMEM intracardially. The tumors and organs were collected in lysogeny broth (LB)+1% NP40, and the tissues were homogenized using a hand-held homogenizer for phage peptide rescue. Phages in the tissue lysates were amplified in E. coli, purified by precipitation with PEG-8000 and DNA was extracted using a DNA extraction kit (High Pure PCR Template Preparation Kit; Roche, Basel, Switzerland). Next-generation sequencing of phage genomic DNA evaluated the representation of each phage in input mixture, in tumor and control organs with Ion Torrent system (Thermo Fisher Scientific, Waltham, MA, USA). The next generation deep sequencing of phage library was done using Ion Torrent according to the manufacturer's protocol with slight modification. The FASTQ data from Ion Torrent was processed by a custom python script that identified the barcodes, constant flanking residues, and extracted the reads of the correct length.

[2] = system: P3 stem cell-like tumor; conditions: i.v. equimolar mix, 2 h circulation
Source text: as §1

[3] = system: P13 tumor; conditions: i.v. equimolar mix, 2 h circulation
Source text: as §1

[4] = system: PC3 prostate carcinoma xenografts; conditions: i.v. equimolar mix, 2 h circulation
Source text: as §1

[5] = system: U87-MG glioblastoma; conditions: i.v. equimolar mix, 2 h circulation
Source text: as §1

[6] = system: normal brain; conditions: i.v. equimolar mix, 2 h circulation
Source text: as §1

[7] = target: T1, TNC-C (Homo sapiens, UniProt P24821); test: Individual peptide-phage binding to TNC-C; conditions: individual peptide phages
T1 construct: made in house; host or cells: E. coli BL21 Rosetta 2 (DE3) pLysS
T1 sequence (P24821 with tags, fused parts or gaps): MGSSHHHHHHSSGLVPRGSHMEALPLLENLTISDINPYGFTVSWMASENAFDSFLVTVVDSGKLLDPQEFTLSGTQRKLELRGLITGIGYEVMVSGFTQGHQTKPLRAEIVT

[8] = system: orthotopic NCH421K glioblastoma xenografts; test: Systemic NW tumor homing, FAM signal by confocal microscopy; format: in vivo, mice; conditions: NCH421K tumors, 7.5 mg/kg i.v., 5 h
Protocol: For NW biodistribution studies, NWs (7.5 mg/kg) in PBS were injected into the tail vein of the tumor-bearing mice, followed by cardiac perfusion with 20 ml PBS/DMEM before collection tumor and control organs for imaging. In control experiments, NW injection was preceded by systemic pre-injection of blocking FN-EDB and/or TNC-C antibodies (30 μg/mouse) 15 min prior to injection of the NWs.
Snap-frozen 10 μm tumor cryosections were mounted on Superfrost™^+ slides. The sections were equilibrated at RT and fixed with 4% paraformaldehyde/methanol and permeabilized with PBST (PBS+0.05% Tween 20), blocked with PBST, 5% BSA, 5% goat serum (GE Healthcare, Little Chalfont, UK) at RT for 30 min, followed by primary antibody incubation at RT for 1 h. […] The coverslips were mounted on glass slides with Fluoromount-G (Electron Microscopy Sciences, PA, USA), imaged using confocal microscopy (Olympus FV1200MPE, Tokyo, Japan) and analyzed using the FV10-ASW4.2 viewer, Imaris software and ImageJ freeware.

[9] = system: PC3 prostate carcinoma xenografts; test: as above; format: in vivo, mice; conditions: PC3 tumors, 7.5 mg/kg i.v., 5 h
Protocol: (§3) FAM-labeled PL2 peptide coupled NW or control FAM-NW (7.5 mg/kg) in PBS were injected into the tail vein of the subcutaneous U87, PC3, and orthotropic WT-GBM tumor mice. Five h after circulation, the tumor and organs were collected by cardiac perfusion of mice with 20 ml PBS/DMEM under deep anesthesia. Tissues were imaged under an Illuminatool Bright Light System LT-9900 (Lightools Research, Encinitas, CA, USA) before Snap-frozen. The frozen tissues were cryosectioned 8-10 μm and mounted on a superfrost+ slides. The sections were equilibrated at RT and fixed with 4% paraformaldehyde/methanol. The immunostaining performed with following primary antibodies; rabbit anti-fluorescein IgG fragment (cat. no. A889, Thermo Fisher Scientific, MA, USA), rat anti-mouse CD31 (BD Biosciences, CA, USA), and in-house prepared CF647 or CF546-labeled single chain antibodies ScFV G11, for secondary antibodies; Alexa 488 goat anti-rabbit IgG, Alexa 647 goat anti-rat IgG, and Alexa 546 goat anti-mouse IgG, were from Invitrogen, CA, USA. Nuclei were counterstained with 4′,6-diamidino-2-phenylindole (DAPI, Molecular Probes) at one 1 μg/ml. The coverslips were mounted onto glass slides with Fluoromount-G (Electron Microscopy Sciences, PA, USA) imaged using confocal microscopy (Olympus FV1200MPE, Hamburg, Germany), and analyzed using the FV10-ASW4.2 viewer/Imaris software/Fiji ImageJ.

[10] = system: Ad-VEGF-A164-induced angiogenic vessels; conditions: adenovirus-injected ear, 7.5 mg/kg i.v., 24 h
Protocol: Angiogenesis was induced by injecting 2.5×10^8 PFU of an adenoviral vector driving expression of mouse VEGF^164 (Ad-VEGF^164) intradermally into the left ear of 7-8 week-old female nude mice (Nagy et al., Methods Enzymol. 444:43-64 (2008)). The right ear served as a control. PL1-NW or NW (at 7.5 mg/kg) were i.v. injected 4 days after induction of angiogenesis and 24 h before intravital imaging. Texas Red/Evans Blue was i.v. injected at 30 mg/kg to allow visualization of blood vessels. The ear was fixed on the coverslip for imaging using a veterinary-grade glue tape, and a mold was prepared around the ear from agarose for imaging. The body temperature was maintained throughout the experiment with a heat mat. Images and videos were acquired at an excitation wavelength of 920 nm, optical sections were taken under identical conditions, and experiments were repeated in triplicates.

[11] = system: orthotopic NCH421K GBM; test: Magnetic resonance imaging of NW-injected mice; format: in vivo
Protocol: For MRI, nude mice bearing orthotopic NCH421k GBM were i.v. injected with iron oxide nanoworms at 5 mg/kg. Five hours after NW injection, the mice were anesthetized with isoflurane and subjected to MRI using a 9.4 Tesla BioSpec 94/21 (Bruker BioSpin MRI GmbH, Ettlingen, Germany) equipped with ParaVision Acquisition 6.0.1 software (Bruker, Ettlingen, Germany). Following intravital MRI, the animals were perfused with PBS to remove blood and background circulating NWs and subjected to postmortem MRI. After imaging, tumors and control tissues were harvested and sectioned for immunofluorescence staining. Mice received isoflurane in oxygen mix (1.5%, flow rate of 200 ml/min) for anesthesia; the body temperature and breathing rate were monitored throughout the experiments. T2* map MGE (Multiple Gradient Echo) sequences were acquired in sagittal and coronal orientations. The following parameters were used during the data acquisition: slice thickness −0.375 mm (3 slices averaged offline for improved signal/noise ratio); inter-slice gap −0.375 mm; repetition time −800; Echo time ˜3.5-38.5 ms; flip angle ˜50°; axial slices ˜128, pixel bandwidth ˜292.9; imaging frequency ˜400.3; matrix ˜256×256, and magnetic field strength ˜9.4. To calculate T2 relaxation times, regions of interest (ROIs) were drawn manually on the images by using image sequence analysis (ISA) tool package (Paravision 5, Bruker) using T2vtr fit function y=A+C*exp (−t/T2) (A=Absolute bias, C=signal intensity, T2=spin-spin relaxation time) for T2 evaluation. To calculate mean signal intensity in the tumor to a reference region, ROIs were drawn manually on the images at given echo time (TE). Experiments were repeated in triplicate.

[12] = system: s.c. U87MG glioblastoma xenografts; test: Systemic NW tumor homing, FAM signal by confocal microscopy; conditions: U87MG tumors, 7.5 mg/kg i.v., 5 h
Protocol: as §3

[13] = system: intracranially-implanted NCH421k GBM; test: Experimental tumor therapy; format: in vivo, mice; design: percent of the surviving mice: concentration or dose not given beside the values
Protocol: (§2) U87MG cells (4×10^6) in 100 μl PBS were implanted subcutaneously into the right flank of 11-15 week old male nude mice. The weight of animals and tumor volume [length×(width×width)/2] was recorded on every other day until tumor volume reached −100 mm^3. Animals were randomized into 4 groups (PBS, FAM-D[KLAKLAK]2-NWs, FAM-PL1-NWs, and FAM-PL1-D[KLAKLAK]2-NWs; 8 mice/group). 100 μl of NWs (at 5 mg/kg body weight of iron) or PBS was intravenously injected into the tail vein every other day for ten injections. Tumor size, body weight, survival, and behavior were recorded during treatment and post-therapy. When the tumor volume reached 2000 mm^3 (or >10% body weight), the mice were sacrificed, and organs and tumors were excised, macroscopically observed and snap frozen. Tumor volume, Kaplan-Meier survival and body weight curves were calculated using the GraphPad Prism 6 software with p-values <0.05 considered significant. For experimental therapy on intracranially-implanted NCH421k GBM, 32 tumor mice were randomized into 4 groups 3 days after the tumor implantation. 100 μl of the PBS or PBS containing FAM-D[KLAKLAK]2-NWs, FAM-PL1-NWs and FAM-PL1-D[KLAKLAK]2-NWs (5 mg/kg body weight of iron; SEQ ID NO:6) were injected i.v. every other day for 10 total injections. Tumor size, body weight, survival, and behavior were recorded during and post-treatment. Kaplan-Meier survival and body weight curves were calculated using GraphPad Prism 6 and P values <0.05 were considered significant.

[14] = system: s.c. U87MG tumors; test: Experimental tumor therapy; format: in vivo, mice
Protocol: as §2, with “100 μl of the PBS or PBS containing FAM-D[KLAKLAK]2-NWs, FAM-PL1-NWs and FAM-PL1-D[KLAKLAK]2-NWs (5 mg/kg body weight of iron; SEQ ID NO:6) were injected i.v. every other day for 10 total injections.” left out

[15] = Zeta potential and size of iron oxide nanoworms by DLS; format: physicochemical; conditions: n = 3
Protocol: The concentration of the NWs was determined by constructing a calibration curve with iron oxide and measuring the absorbance of NWs at 400 nm with a NanoDrop 2000c spectrophotometer (Thermo Scientific). The concentration measurements were confirmed by ICP-MS. Transmission electron microscopy (TEM, Tecnai 10, Philips, Netherlands) was used to image the nanoparticles. Dynamic Light Scattering (DLS; Zetasizer Nano ZS, Malvern Instruments, UK) was used to assess the zeta potential, polydispersity and size of NWs.

[16] = system: clinical GBM samples; test: NW overlay assay on clinical GBM cryosections; design: species or system human; conditions: confocal imaging
Protocol: Fresh surgical GBMs ([…]) were snap-frozen in liquid nitrogen, cryosectioned at 8 μm, fixed with methanol, and permeabilized with TBS followed by blocking buffer containing 5% BSA, 5% goat serum and 5% FBS in TBS. For overlay, the sections were incubated with […] of PL1-NW or NW at 4° C. overnight. The sections were washed and blocked with blocking buffer, followed by immunostaining using rabbit anti-fluorescein primary antibodies and detection with the Alexa-488 anti-rabbit secondary antibody. FN-EDB and TNC-C were detected by fluorescently labeled single-chain antibodies ScFV L19 FN-EDB-CF647 and ScFV G11 TNC-C-CF555.

[17] = system: orthotopic WT-GBM glioblastoma; test: Systemic NW tumor homing, FAM signal by confocal microscopy; format: in vivo, mice; conditions: WT tumors, 7.5 mg/kg i.v., 5 h
Protocol: as §3

Substance: AVRGRLRVAKLAAALE [TNC-C-selected phage clones 3 and 7]
- Representation of phage in tumors (fold G7 control phage), WT-GBM [1]: 1.3 fold
- Representation of phage in tumors (fold G7 control phage), P3 SCL [2]: 0.6 fold
- Representation of phage in tumors (fold G7 control phage), P13 [3]: 0.6 fold
- Representation of phage in tumors (fold G7 control phage), PC3 [4]: 1.0 fold
- Representation of phage in tumors (fold G7 control phage), U87-MG [5]: 0.8 fold
- Representation of phage in control brain tissue (fold G7 control phage), Norm. brain [6]: 0.1 fold
- TNC-C binding (fold G7 control phage) [7]: 5333 fold and 7111 fold

Substance: PL1-NW: iron oxide nanoworms coated with FAM-labeled PL1 peptide (CPPRRGLIKLKTS; not fully specified (residue 1); also: FAM label)
- increase in NW accumulation compared to non-targeted NWs [8]: 8.8 fold
- increase in NW accumulation compared to non-targeted NWs [9]: 4.7 fold
- increase in accumulation in angiogenic vessels relative to nontargeted NWs [10]: ~3 fold
- decrease of T2* relaxation time within the tumor ([11]; 5 mg/kg iron i.v.): 27-36%
- T2* relaxation time within the tumor ([11]; after NW injection, first value (post-scan, 5 h)): 17 ± 1 ms
- T2* relaxation time within the tumor ([11]; after NW injection, second value (perfused)): 14 ± 4 ms
- T2* relaxation time within the tumor ([11]; before NW injection (pre-scan)): about 23±2 ms
- increase in NW accumulation compared to non-targeted NWs [12]: 5 fold
- Median survival ([13]; Kaplan-Meier): 42 days
- percent of the surviving mice ([13]; day 0): 100%
- percent of the surviving mice ([13]; day 32): 100%
- percent of the surviving mice ([13]; day 37): 75%
- percent of the surviving mice ([13]; day 38): 62.5%
- percent of the surviving mice ([13]; day 39): 62.5%
- percent of the surviving mice ([13]; day 40): 62.5%
- percent of the surviving mice ([13]; day 41): 62.5%
- percent of the surviving mice ([13]; day 42): 37.5%
- percent of the surviving mice ([13]; day 43): 25%
- percent of the surviving mice ([13]; day 44): 0%
- Median survival ([14]; U87MG, Kaplan-Meier): 39 days
- percent of the surviving mice ([14]; U87MG, day 0): 100%
- percent of the surviving mice ([14]; U87MG, day 29): 88%
- percent of the surviving mice ([14]; U87MG, day 31): 75%
- percent of the surviving mice ([14]; U87MG, day 33): 75%
- percent of the surviving mice ([14]; U87MG, day 35): 63%
- percent of the surviving mice ([14]; U87MG, day 37): 63%
- percent of the surviving mice ([14]; U87MG, day 39): 38%
- percent of the surviving mice ([14]; U87MG, day 41): 25%
- percent of the surviving mice ([14]; U87MG, day 43): 25%
- percent of the surviving mice ([14]; U87MG, day 45): 13%
- percent of the surviving mice ([14]; U87MG, day 49): 13%
- percent of the surviving mice ([14]; U87MG, day 57): 0%
- tumor growth ([14]; s.c. U87MG, i.v. every other day, 10 injections, 5 mg/kg iron): only a slight reduction in tumor growth
- Zeta Potential [15]: −10.3 ± 0.7 mV
- binding to clinical GBM cryosections [16]: showed binding to all human GBM samples tested
- increase in NW accumulation compared to non-targeted NWs [17]: 3.3 fold
